# Laboratory results published in US8889724B2, “Tetrazole compounds for reducing uric acid” (Wellstat Therapeutics Corporation, priority 2008, dated 2014).
# Values joined by “and” are separate entries in the source; they are usually repeats but may differ in a detail not shown here. Identical values can stand only once. Like-named read-outs stand apart in the source and are kept apart here.
# Test: Mouse oral single-dose pharmacokinetic study with Compound EB
# Format: in vivo
# Conditions: 100 mg/kg single oral gavage
# Method: Mouse Oral Single-Dose Pharmacokinetic Study with Compound EB
# Determination of the Plasma profile of Compound EB following single oral gavage administration to male mice:
# Test compounds were suspended in 1% HPMC using a tissue homogenizer to minimize particles and maximize uniformity of the suspension and stored at 4° C. The formulations was thoroughly mixed just prior to administration. A dose of 100 mg/kg of Compound EB or vehicle (1% HPMC) was administered to male mice by single oral gavage. Mice were placed in urine collectors after dosing for 5 hours, and the total urine output for 5 hours was collected. Samples were frozen at −80° C. until analyzed using LC/MS-MS.
# At 0, 0.5, 1, 2, 4, 6, 8 and 24 hours post-dose time points, blood samples (0.4 mL) were collected by orbital sinus bleeds in K3EDTA tubes. The blood samples were centrifuged within 30 minutes of collection under refrigeration (2-8° C.) for 7 minutes at 6000 rpm. Following centrifugation, the plasma were harvested into a single tube for each animal at each time point and immediately frozen at −80° C. until analyzed using LC/MS-MS. Data was subjected to pharmacokinetic analyses using WinNonlin Standard (v2.1, Pharsight Corporation) and Microsoft EXCEL.
# 1. Mice received single oral gavage of Compound EB, 100 mg/kg, and plasma was collected at certain times.
# 2. Plasma was stored at −80° C. until the day of analysis.
# 3. Samples were thawed on 37° C. bath for 5 min and vortexed at top speed for 10 sec.
# 4. Mouse plasma, 0.1 mL was mixed with 0.2 mL Acetonitrile, vortexed 1 min, spun down 14000 rpm, 17000 g, at 4° C., for 25 min.
# 5. Supernatants were filtered through 0.45 micron, 4 mm, PTFE membrane syringe filter (Phenomenex # AF0-3102-52), and 13 microL were injected and resolved on Luna 3 micron, 100 A pore, C8(2), 150×3 mm, reverse phase column (Phenomenex#00F-4248-YO, SN#259151-7) in 50 min linear gradient from 40% to 69% of (0.1% Formic Acid, 89.9% Acetonitrile, 10% Methanol) at 0.25 mL/min, 100 bar, 37° C. column temperature, method 406975M1, Sequence 1029-08A, Agilent 1100 LC-MS.
# All samples were run in duplicate, 210 nm and 230 nm Absorbances, Negative and Positive ionization spectrograms recorded.
# Step 1. Plasma from “Vehicle” animals (pooled), 0.095 mL, was mixed with 0.005 mL 20× stock of Compound EB in Methanol to make 500 microM, 250 microM, 125 microM, . . . , concentrations of Compound EB in plasma.
# For example: 95 microL plasma+5 microL of 10 mM Compound EB in methanol=0.1 mL plasma with 500 microM Compound EB.
# Step 2. Samples from step 1 were vortexed for 10 sec at top speed.
# Step 3. 0.2 mL of acetonitrile was added to all samples from Step 2, and all vials were vortexed at top speed for 1 min.
# Step 4. All samples from step 3 were spun down 14000 rpm, 17000 g, at 4° C., for 25 min.
# Step 5. Supernatants were filtered through 0.45 micron, 4 mm, PTFE membrane syringe filter (Phenomenex # AF0-3102-52), 13 microL were injected and resolved on Luna 3 micron, 100 A pore, C8(2), 150×3 mm, reverse phase column
smiles,measurement,setting,value
"Cc1cccc(C)c1COc1cccc(-c2nnn[nH]2)c1 [Compound EB, 5-(3-(2,6-Dimethylbenzyloxy)phenyl)-1H-tetrazole]",Detection in mouse plasma (in words),LC-MS,readily detected
same,"Compound EB concentr. in plasma, individual animals","male mice, bleed time 0 HR",0 µg/mL
same,"Compound EB concentr. in plasma, individual animals","male mice, bleed time 0.5 HR",207.5 µg/mL and 134.2 µg/mL
same,"Compound EB concentr. in plasma, individual animals","male mice, bleed time 1 HR",139.7 µg/mL and 157.6 µg/mL
same,"Compound EB concentr. in plasma, individual animals","male mice, bleed time 2 HR",139.9 µg/mL and 187.6 µg/mL and 82.4 µg/mL
same,"Compound EB concentr. in plasma, individual animals","male mice, bleed time 4 HR",74.9 µg/mL and 92.1 µg/mL and 39.6 µg/mL
same,"Compound EB concentr. in plasma, individual animals","male mice, bleed time 6 HR",79.9 µg/mL and 48 µg/mL
same,"Compound EB concentr. in plasma, individual animals","male mice, bleed time 8 HR",18.2 µg/mL and 10.7 µg/mL and 0 µg/mL
same,"Compound EB concentr. in plasma, individual animals","male mice, bleed time 24 HR",0 µg/mL
same,AUC0-24,"male mice, plasma",AUC0-24: 796 μg/mL
same,concentration at 0 h,"male, mouse, plasma, po, 100 mg/kg, male mice, 0 hr, read-out: Compound EB concentration in plasma, average",0 ng/mL
same,concentration at 0.5 h,"male, mouse, plasma, po, 100 mg/kg, male mice, 0.5 hr, read-out: Compound EB concentration in plasma, average",183 µg/mL
same,concentration at 1 h,"male, mouse, plasma, po, 100 mg/kg, male mice, 1 hr, read-out: Compound EB concentration in plasma, average",169 µg/mL
same,concentration at 2 h,"male, mouse, plasma, po, 100 mg/kg, male mice, 2 hr",137 µg/mL
same,concentration at 4 h,"male, mouse, plasma, po, 100 mg/kg, male mice, 4 hr",69 µg/mL
same,concentration at 6 h,"male, mouse, plasma, po, 100 mg/kg, male mice, 6 hr, read-out: Compound EB concentration in plasma, average",62 µg/mL
same,concentration at 8 h,"male, mouse, plasma, po, 100 mg/kg, male mice, 8 hr",10 µg/mL
same,concentration at 24 h,"male, mouse, plasma, po, 100 mg/kg, male mice, 24 hr, read-out: Compound EB concentration in plasma, average",3 µg/mL
same,concentration at 0 h,"male, mouse, plasma, po, 100 mg/kg, male mice, bleed time 0 HR, read-out: Compound EB concentr. in plasma, individual animals",0 ng/mL
same,concentration at 0.5 h,"male, mouse, plasma, po, 100 mg/kg, male mice, bleed time 0.5 HR, read-out: Compound EB concentr. in plasma, individual animals",206 µg/mL
same,concentration at 1 h,"male, mouse, plasma, po, 100 mg/kg, male mice, bleed time 1 HR, read-out: Compound EB concentr. in plasma, individual animals",210 µg/mL
same,concentration at 6 h,"male, mouse, plasma, po, 100 mg/kg, male mice, bleed time 6 HR, read-out: Compound EB concentr. in plasma, individual animals",58.7 µg/mL
same,concentration at 24 h,"male, mouse, plasma, po, 100 mg/kg, male mice, bleed time 24 HR, read-out: Compound EB concentr. in plasma, individual animals",0 µg/mL
same,Cmax,"mouse, male mice, plasma",210 µg/mL
